What follows are compounds tested against T1, prolyl endopeptidase (Sus scrofa, UniProt P23687) (assay: Enzyme inhibitory action on swine kidney-derived prolyl endopeptidase (Z-Gly-Pro-β-naphthylamide substrate)). Conditions: in vitro, qualitative statement.
T1 construct: swine kidney-derived prolyl endopeptidase; from tissue; host or cells: swine kidney
Format: biochemical
Procedure: Using 0.1 mM of benzyolxycarbonylglycylproline-β-naphthylamide as substrate and swine kidney-derived prolyl endopeptidase as enzyme, the enzyme was acted on the substrate at 37° C. for 30 minutes in 0.025 M Tris(hydroxymethyl)methane amine-hydrochloric acid (pH 7.5) solution. Fast Garnet was added to form a color and absorbance was measured at 525 nm. The inhibitory activity is expressed in terms of concentration required for 50% inhibition (IC50).

T1 sequence (P23687 whole entry): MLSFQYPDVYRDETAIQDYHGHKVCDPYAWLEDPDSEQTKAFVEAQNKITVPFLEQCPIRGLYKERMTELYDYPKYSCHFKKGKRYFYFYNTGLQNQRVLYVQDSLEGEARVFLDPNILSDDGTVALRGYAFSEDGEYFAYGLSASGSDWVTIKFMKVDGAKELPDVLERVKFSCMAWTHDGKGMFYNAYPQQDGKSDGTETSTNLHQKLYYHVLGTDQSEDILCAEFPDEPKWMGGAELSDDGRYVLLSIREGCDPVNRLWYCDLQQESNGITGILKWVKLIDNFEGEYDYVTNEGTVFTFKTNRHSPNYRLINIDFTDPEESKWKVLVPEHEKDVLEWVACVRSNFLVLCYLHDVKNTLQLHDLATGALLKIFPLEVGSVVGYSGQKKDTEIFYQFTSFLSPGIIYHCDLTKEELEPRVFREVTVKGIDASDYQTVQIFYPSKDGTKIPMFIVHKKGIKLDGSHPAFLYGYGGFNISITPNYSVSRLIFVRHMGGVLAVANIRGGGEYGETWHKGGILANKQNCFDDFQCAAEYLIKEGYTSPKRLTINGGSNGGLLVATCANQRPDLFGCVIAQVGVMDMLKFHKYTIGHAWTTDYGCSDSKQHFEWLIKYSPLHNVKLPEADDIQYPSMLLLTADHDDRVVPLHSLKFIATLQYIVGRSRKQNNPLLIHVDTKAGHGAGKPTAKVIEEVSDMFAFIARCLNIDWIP

With `O=C(NC1CCCC1)C(=O)C1CCCN1C(=O)C(Cc1ccccc1)NC(=O)c1cccc(Oc2ccccc2)c1` (stereo not shown) [Example 13, N-Cyclopentyl-2-oxo-2-[2-(1-(N-(3-phenoxybenzoyl)phenylalanyl)pyrrolidinyl)]acetamide] the “prolyl endopeptidase inhibition activity (in words)” value was “potent inhibition activity on almost the same level”.
`O=C(NC1CCCCCCC1)C(=O)C1CCCN1C(=O)C(Cc1ccccc1)NC(=O)c1cccc(Oc2ccccc2)c1` (stereo not shown) [Example 113, N-Cyclooctyl-2-oxo-2-[2-(1-(N-(3-phenoxybenzoyl)phenylalanyl)pyrrolidinyl)]acetamide] was tested, and the “prolyl endopeptidase inhibition activity (in words)” value was “potent inhibition activity on almost the same level”.
In the case of `O=C(NC1CCCCCC1)C(=O)C1CCCN1C(=O)C(Cc1ccccc1)NC(=O)c1cccc(Oc2ccccc2)c1` (stereo not shown) [Example 41, N-Cycloheptyl-2-oxo-2-[2-(1-(N-(3-phenoxybenzoyl)-phenylalanyl)pyrrolidinyl)]acetamide], the “prolyl endopeptidase inhibition activity (in words)” value is reported as “potent inhibition activity on almost the same level”.
For `O=C(NC1CCCCC1)C(=O)C1CCCN1C(=O)C(Cc1ccccc1)NC(=O)c1cccc(Oc2ccccc2)c1` (stereo not shown) [Example 28, N-Cyclohexyl-2-oxo-2-[2-(1-(N-(3-phenoxybenzoyl)phenylalanyl)pyrrolidinyl)]acetamide], the “prolyl endopeptidase inhibition activity (in words)” value was “potent inhibition activity on almost the same level”.
For `O=C(NC1CC1)C(=O)C1CCCN1C(=O)C(Cc1ccccc1)NC(=O)c1cccc(Oc2ccccc2)c1` (stereo not shown) [Example 108, N-Cyclopropyl-2-oxo-2-[2-(1-(N-(3-phenoxybenzoyl)phenylalanyl)pyrrolidinyl)]acetamide], the “prolyl endopeptidase inhibition activity (in words)” value was “potent inhibition activity on almost the same level”.

Same assay, conditions: swine kidney prolyl endopeptidase, 0.1 mM substrate, 37° C., 30 minutes, pH 7.5

Going from `CC(C)(C)OC(=O)N1c2ccccc2CC1C(=O)N1CCCC1C(=O)C(=O)NC1CCCCC1` (stereo not shown) [Example 126, N-Cyclohexyl-2-oxo-2-[2-(1-(1-t-butoxycarbonyl-2,3-dihydroindole-2-carbonyl)pyrrolidinyl)]acetamide] to `CC(C)(C)OC(=O)NC(Cc1ccccc1)C(=O)N1CCCC1C(=O)C(=O)NC1CCCCC1` (stereo not shown) [Example 15, N-Cyclohexyl-2-oxo-2-[2-(1-(N-t-butoxycarbonylphenylalanyl)pyrrolidinyl)]acetamide], the IC50 rises from 1.7 nM to 3.18 nM (1.9-fold). The first is the more potent here.

Compared with `O=C(NC1CCCCC1)C(=O)C1CCCN1C(=O)C1CCCN1C(=O)CSc1ccncc1` (stereo not shown) [Example 55, N-Cyclohexyl-2-oxo-2-[2-(1-(N-(4-pyridylthioacetyl)prolyl)pyrrolidinyl)]acetamide], `O=C(CSc1ccncc1)NC(Cc1ccccc1)C(=O)N1CCCC1C(=O)C(=O)NC1CCCCC1` (stereo not shown) [Example 51, N-Cyclohexyl-2-oxo-2-[2-(1-(N-(4-pyridylthioacetyl)-phenylalanyl)pyrrolidinyl)]acetamide] is 1.6-fold higher in IC50: 1.69 nM for the first, 2.68 nM for the second. The first is the more potent here.

Going from `O=C(NC1CCCCC1)C(=O)C1CCCN1C(=O)C=Cc1ccccc1` (stereo not shown) [Example 68, N-Cyclohexyl-2-oxo-2-[2-(1-cinnamoylpyrrolidinyl)]acetamide] to `O=C(NC1CCCCC1)C(=O)C1CCCN1C(=O)C=Cc1cccnc1` (stereo not shown) [Example 72, N-Cyclohexyl-2-oxo-2-[2-(1-(3-(3-pyridyl)acryloyl)pyrrolidinyl)]acetamide], the IC50 rises from 48 nM to 239 nM (5-fold).

`O=C(NC1CCCC1)C(=O)C1CCCN1C(=O)C(Cc1ccccc1)NC(=O)c1cccc(Oc2ccccc2)c1` (stereo not shown) [Example 13, N-Cyclopentyl-2-oxo-2-[2-(1-(N-(3-phenoxybenzoyl)phenylalanyl)pyrrolidinyl)]acetamide] and `O=C(NC1CCCCC1)C(=O)C1CCCN1C(=O)C(Cc1ccccc1)NC(=O)c1cccc(Oc2ccccc2)c1` (stereo not shown) [Example 28, N-Cyclohexyl-2-oxo-2-[2-(1-(N-(3-phenoxybenzoyl)phenylalanyl)pyrrolidinyl)]acetamide] are within 1.5-fold of each other in IC50: 1.48 nM for the first, 1.14 nM for the second.

`O=C(NC1CCCCC1)C(=O)C1CCCN1C(=O)c1ccc2ccccc2n1` (stereo not shown) [Example 66, N-Cyclohexyl-2-oxo-2-[2-(1-(2-quinolylcarbonyl)pyrrolidinyl)]acetamide] and `O=C(NC1CCCCCC1)C(=O)C1CCCN1C(=O)c1ccc2ccccc2c1` (stereo not shown) [Example 78, N-Cycloheptyl-2-oxo-2-[2-(1-(2-naphthoyl)pyrrolidinyl)]acetamide] are within 1.5-fold of each other in IC50: 26.4 nM for the first, 23.4 nM for the second.

`O=C(NC1CCCCCCC1)C(=O)C1CCCN1C(=O)C(Cc1ccccc1)NC(=O)c1cccc(Oc2ccccc2)c1` (stereo not shown) [Example 113, N-Cyclooctyl-2-oxo-2-[2-(1-(N-(3-phenoxybenzoyl)phenylalanyl)pyrrolidinyl)]acetamide] and `O=C(NC1CCCCCC1)C(=O)C1CCCN1C(=O)C(Cc1ccccc1)NC(=O)c1cccc(Oc2ccccc2)c1` (stereo not shown) [Example 41, N-Cycloheptyl-2-oxo-2-[2-(1-(N-(3-phenoxybenzoyl)-phenylalanyl)pyrrolidinyl)]acetamide] are within 1.5-fold of each other in IC50: 1.59 nM for the first, 1.38 nM for the second.

Compared with `O=C(NC1CCCCC1)C(=O)C1CCCN1C(=O)C(Cc1ccccc1)NC(=O)c1ccncc1` (stereo not shown) [Example 49, N-Cyclohexyl-2-oxo-2-[2-(1-(N-(isonicotinonyl)-phenylalanyl)pyrrolidinyl)]acetamide], `O=C(NC1CCCCC1)C(=O)C1CCCN1C(=O)C(Cc1ccccc1)NC(=O)c1cccnc1` (stereo not shown) [Example 53, N-Cyclohexyl-2-oxo-2-[2-(1-(N-(nicotinonyl)phenylalanyl)pyrrolidinyl)]acetamide] is 1.5-fold lower in IC50: 6.5 nM for the first, 4.2 nM for the second. The second is the more potent here.

`O=C(CSc1ccccc1)NC(Cc1ccccc1)C(=O)N1CCCC1C(=O)C(=O)NC1CCCCC1` (stereo not shown) [Example 47, N-Cyclohexyl-2-oxo-2-[2-(1-(N-(phenylthioacetyl)-phenylalanyl)pyrrolidinyl)]acetamide] and `O=C(COc1ccccc1)NC(Cc1ccccc1)C(=O)N1CCCC1C(=O)C(=O)NC1CCCCC1` (stereo not shown) [Example 20, N-Cyclohexyl-2-oxo-2-[2-(1-(N-phenoxyacetylphenylalanyl)pyrrolidinyl)]acetamide] are within 1.5-fold of each other in IC50: 1.53 nM for the first, 1.58 nM for the second.

Compared with `O=C(NCCN1CCOCC1)C(=O)C1CCCN1C(=O)c1ccc(Cl)cc1` (stereo not shown) [Example 95, N-(2-Morpholinoethyl)-2-oxo-2-[2-(1-(4-chlorobenzoyl)-pyrrolidinyl)]acetamide], `O=C(NCCc1ccccn1)C(=O)C1CCCN1C(=O)c1ccc(Cl)cc1` (stereo not shown) [Example 97, N-(2-(2-Pyridyl)ethyl)-2-oxo-2-[2-(1-(4-chlorobenzoyl)pyrrolidinyl)]acetamide] is 1.9-fold lower in IC50: 168 nM for the first, 90.7 nM for the second.

`O=C(NC1CCCCC1)C(=O)C1CCCN1C(=O)C=Cc1ccc(Cl)cc1` (stereo not shown) [Example 70, N-Cyclohexyl-2-oxo-2-[2-(1-(3-(4-chlorophenyl)acryloyl)pyrrolidinyl)]acetamide] and `O=C(NC1CCCCC1)C(=O)C1CCCN1C(=O)c1ccccn1` (stereo not shown) [Example 74, N-Cyclohexyl-2-oxo-2-[2-(1-(2-pyridylcarbonyl)pyrrolidinyl)]acetamide] are within 1.5-fold of each other in IC50: 111 nM for the first, 97.1 nM for the second.

First: O=C(CCC1CCCCC1)NC(Cc1ccccc1)C(=O)N1CCCC1C(=O)C(=O)NC1CCCCC1 (stereo not shown) [Example 33, N-Cyclohexyl-2-oxo-2-[2-(1-(N-(3-cyclohexylpropionyl)-phenylalanyl)pyrrolidinyl)]acetamide]
Second: CC(=O)NC(Cc1ccccc1)C(=O)N1CCCC1C(=O)C(=O)NC1CCCCC1 (stereo not shown) [Example 118, N-Cyclohexyl-2-oxo-2-[2-(1-(N-acetylphenylalanyl)pyrrolidinyl)]acetamide]
The IC50 of the first is 2.1-fold lower: 0.981 nM for the first, 2.03 nM for the second. The first is the more potent here.

Compared with `O=C(NC1CCCCC1)C(=O)C1CCCN1C(=O)CN(Cc1ccccc1)C(=O)c1ccncc1` (stereo not shown) [Example 60, N-Cyclohexyl-2-oxo-2-[2-(1-(N-isonicotinonyl-N-benzylglycyl)pyrrolidinyl)]acetamide], `O=C(NC1CCCCC1)C(=O)C1CCCN1C(=O)C(Cc1ccccc1)NC(=O)c1ccccc1` (stereo not shown) [Example 43, N-Cyclohexyl-2-oxo-2-[2-(1-(N-benzoylphenylalanyl)pyrrolidinyl)]acetamide] is 4.7-fold lower in IC50: 8.81 nM for the first, 1.89 nM for the second. The second is the more potent here.

Compared with `O=C(NC1CCCCC1)C(=O)C1CCCN1C(=O)C(Cc1ccccc1)NC(=O)c1ccc2ccccc2n1` (stereo not shown) [Example 115, N-Cyclohexyl-2-oxo-2-[2-(1-(N-(2-quinolylcarbonyl)phenylalanyl)pyrrolidinyl)]acetamide], `O=C(NC1CCCCC1)C(=O)C1CCCN1C(=O)C(Cc1ccccc1)NC(=O)c1ccc2ccccc2c1` (stereo not shown) [Example 22, N-Cyclohexyl-2-oxo-2-[2-(1-(N-(2-naphthoyl)phenylalanyl)pyrrolidinyl)]acetamide] is 1.5-fold higher in IC50: 2.09 nM for the first, 3.23 nM for the second.

Going from `O=C(NC1CCCCC1)C(=O)C1CCCN1C(=O)[C@H](Cc1ccccc1)NC(=O)c1ccc(CN2CCOCC2)cc1` (stereo partly shown) [Example 57, N-Cyclohexyl-2-oxo-2-[2-(1-(N-(4-morpholinomethylbenzoyl)phenylalanyl)pyrrolidinyl)]acetamide] to `O=C(NC1CCCCC1)C(=O)C1CCCN1C(=O)C(Cc1ccccc1)NC(=O)c1cccs1` (stereo not shown) [Example 18, N-Cyclohexyl-2-oxo-2-[2-(1-(N-(2-thenoyl)phenylalanyl)pyrrolidinyl)]acetamide], the IC50 falls from 9.4 nM to 2.28 nM (4.1-fold).

Going from `CC(C)C(NC(=O)OCc1ccccc1)C(=O)N1CCCC1C(=O)C(=O)NC1CCCCC1` (stereo not shown) [Example 4, N-cyclohexyl-2-oxo-2-[2-(1-(N-benzyloxycarbonylvalyl)pyrrolidinyl)]acetamide] to `O=C(NC(Cc1ccccc1)C(=O)N1CCCC1C(=O)C(=O)NC1CCCCC1)OCc1ccccc1` (stereo not shown) [Example 45, N-Cyclohexyl-2-oxo-2-[2-(1-(N-benzyloxycarbonylphenylalanyl)pyrrolidinyl)]acetamide], the IC50 rises from 1.09 nM to 2.37 nM (2.2-fold).

`CC(C)C(NC(=O)c1ccc2ccccc2n1)C(=O)N1CCCC1C(=O)C(=O)NC1CCCCC1` (stereo not shown) [Example 9, N-Cyclohexyl-2-oxo-2-[2-(1-(N-(2-quinolinecarbonyl)valyl)pyrrolidinyl)]acetamide] and `CC(C)C(NC(=O)c1cccc(Oc2ccccc2)c1)C(=O)N1CCCC1C(=O)C(=O)NC1CCCCC1` (stereo not shown) [Example 7, N-cyclohexyl-2-oxo-2-[2-(1-(N-(3-phenoxybenzoyl)valyl)pyrrolidinyl)]acetamide] are within 1.5-fold of each other in IC50: 1.34 nM for the first, 0.962 nM for the second.

Compared with `O=C(NC1CCCCC1)C(=O)C1CCCN1C(=O)c1cccc(Oc2ccccc2)c1` (stereo not shown) [Example 76, N-Cyclohexyl-2-oxo-2-[2-(1-(3-phenoxybenzoyl)pyrrolidinyl)]acetamide], `O=C(NC1CC1)C(=O)C1CCCN1C(=O)C(Cc1ccccc1)NC(=O)c1cccc(Oc2ccccc2)c1` (stereo not shown) [Example 108, N-Cyclopropyl-2-oxo-2-[2-(1-(N-(3-phenoxybenzoyl)phenylalanyl)pyrrolidinyl)]acetamide] is 10-fold lower in IC50: 13.8 nM for the first, 1.33 nM for the second. The second is the more potent here.

First: O=C(NC1CCCCC1)C(=O)C1CCCN1C(=O)c1ccc(Cn2ccnc2)cc1 (stereo not shown) [Example 88]
Second: O=C(NC1CCCCC1)C(=O)C1CCCN1C(=O)c1ccc(CN2CCCCC2)cc1 (stereo not shown) [Example 86, N-Cyclohexyl-2-oxo-2-[2-(1-(4-piperidinomethylbenzoyl)pyrrolidinyl)]acetamide]
The IC50 of the first is 1.6-fold higher: 132 nM for the first, 82.2 nM for the second. The second is the more potent here.

Compared with `O=C(C=Cc1ccco1)NC(Cc1ccccc1)C(=O)N1CCCC1C(=O)C(=O)NC1CCCCC1` (stereo not shown) [Example 31, N-Cyclohexyl-2-oxo-2-[2-(1-(N-(3-(2-furyl)acryloyl)-phenylalanyl)pyrrolidinyl)]acetamide], `O=C(NCc1nc2ccccc2[nH]1)C(=O)C1CCCN1C(=O)c1ccc(Cl)cc1` (stereo not shown) [Example 93, N-(2-Benzimidazolylmethyl)-2-oxo-2-[2-(1-(4-chlorobenzoyl)pyrrolidinyl)]acetamide] is 21-fold higher in IC50: 6.31 nM for the first, 134 nM for the second.
